In the supplement of paper PMC10307832:

Columns and labels:
Experiment in all cases: relative viability (nuclei count vs DMSO), 5 days (fraction); higher = more cells survive
Obatoclax + Foretinib = compound: COC1=CC(c2cc3ccccc3[nH]2)=N/C1=C\c1[nH]c(C)cc1C [Obatoclax] + COc1cc2c(Oc3ccc(NC(=O)C4(C(=O)Nc5ccc(F)cc5)CC4)cc3F)ccnc2cc1OCCCN1CCOCC1 [Foretinib] (partner 0.25 µM)
In short: (§1)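 A single step with final 0.05% Triton X-100, 1% formaldehyde and 1 ug/ml Hoechst fixed the cells and stained nuclei 5 days after treatment. Lung cancer cell lines in 1536-well plates had been treated by pin tool the day after seeding with one drug alone or a fixed anchor-drug dose plus five library-drug doses (not always all listed) in √10 steps, and nuclei were counted on 4× images. Relative viability is the ratio of nuclei in treated wells to nuclei in vehicle wells, taken as the median of duplicate plates.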

Obatoclax + Decitabine = compound: COC1=CC(c2cc3ccccc3[nH]2)=N/C1=C\c1[nH]c(C)cc1C [Obatoclax] + Nc1ncn([C@H]2C[C@H](O)[C@@H](CO)O2)c(=O)n1 [Decitabine] (partner 2 µM)
In short: as §1

Bortezomib + Phenformin = compound: CC(C)C[C@H](NC(=O)[C@H](Cc1ccccc1)NC(=O)c1cnccn1)B(O)O [Bortezomib] + N=C(N)NC(=N)NCCc1ccccc1 [Phenformin] (partner 250 µM)
In short: as §1

[1] = compound: CC1=CC(=NN1)NC2=CC(=NC(=N2)/C=C/C3=CC=CC=C3)N4CCN(CC4)C + Cc1nc(Nc2ncc(C(=O)Nc3c(C)cccc3Cl)s2)cc(N2CCN(CCO)CC2)n1 [Dasatinib] (partner 0.075 µM)
In short: as §1

Row | Cell Line | relative viability (Obatoclax + Foretinib; first compound 0.01 µM) | relative viability (Obatoclax + Foretinib; first compound 0.03162 µM) | relative viability (Obatoclax + Foretinib; first compound 0.1 µM) | relative viability (Obatoclax + Foretinib; first compound 0.3162 µM) | relative viability (Obatoclax + Foretinib; first compound 1 µM) | relative viability (Obatoclax + Decitabine; first compound 0.01 µM) | relative viability (Obatoclax + Decitabine; first compound 0.03162 µM) | relative viability (Obatoclax + Decitabine; first compound 0.3162 µM) | relative viability (Obatoclax + Decitabine; first compound 1 µM) | relative viability (Bortezomib + Phenformin; first compound 0.0002 µM) | relative viability (Bortezomib + Phenformin; first compound 0.000632 µM) | relative viability (Bortezomib + Phenformin; first compound 0.002 µM) | relative viability (Bortezomib + Phenformin; first compound 0.006325 µM) | relative viability (Bortezomib + Phenformin; first compound 0.02 µM) | relative viability ([1]; first compound 0.08 µM) | relative viability ([1]; first compound 0.253 µM) | relative viability ([1]; first compound 0.8 µM) | relative viability ([1]; first compound 2.53 µM) | relative viability ([1]; first compound 8 µM) | relative viability (Obatoclax + Decitabine; first compound 0.1 µM)
1 | EMC-BAC-2 | 0.987 | 1.03 | 1.08 | 0.864 | 0.788 | 0.95 | 0.977 | 0.98 | 0.541 | 0.551 | 0.459 | 0.477 | 0.209 | 0.211 | 0.308 | 0.268 | 0.298 | 0.202 | 0.0961 | 
2 | HARA | 0.966 | 0.93 | 0.91 | 0.935 | 1 | 0.52 | 0.593 | 0.462 | 0.405 | 0.374 | 0.447 | 0.512 | 0.222 | 0.0528 | 0.26 | 0.236 | 0.221 | 0.183 | 0.0802 | 0.528
3 | LU99A | 0.875 | 0.792 | 0.774 | 0.619 | 0.714 | 0.915 | 0.89 | 0.847 | 0.976 | 0.789 | 0.782 | 0.898 | 0.85 | 0.328 | 0.546 | 0.547 | 0.475 | 0.22 | 0.146 | 
4 | LK-2 | 1.12 | 1.28 | 1.51 | 1.26 | 1.11 | 0.365 | 0.242 | 0.268 | 0.395 | 0.416 | 0.282 | 0.514 | 0.131 | 0.149 | 0.242 | 0.246 | 0.226 | 0.139 | 0.0998 | 0.335
5 | NCI-H441 | 0.877 | 0.925 | 1.05 | 0.639 | 0.612 | 0.213 | 0.272 | 0.2 | 0.194 | 0.969 | 0.732 | 0.514 | 0.166 | 0.189 | 0.526 | 0.443 | 0.61 | 0.159 | 0.117 | 0.287
6 | NCI-H23 | 1.04 | 1 | 0.986 | 0.826 | 1.01 | 0.328 | 0.272 | 0.286 | 0.349 | 0.79 | 0.652 | 0.785 | 0.277 | 0.114 | 0.769 | 0.764 | 0.815 | 0.683 | 0.137 | 0.369
7 | NCI-H647 | 1.14 | 1.04 | 1.12 | 0.935 | 0.476 | 0.422 | 0.27 | 0.3 | 0.112 | 0.479 | 0.444 | 0.267 | 0.0466 | 0.0232 | 0.185 | 0.186 | 0.2 | 0.0436 | 0.0226 | 0.438
8 | 201T | 1.09 | 1.12 | 1.1 | 1.09 | 0.768 | 0.814 | 0.731 | 0.857 | 0.92 | 0.456 | 0.402 | 0.483 | 0.44 | 0.24 | 0.586 | 0.546 | 0.541 | 0.435 | 0.208 | 0.868
9 | NCI-H1734 | 0.81 | 0.863 | 0.9 | 0.785 | 0.628 | 0.504 | 0.467 | 0.491 | 0.506 | 0.454 | 0.37 | 0.356 | 0.155 | 0.105 | 0.4 | 0.454 | 0.464 | 0.257 | 0.111 | 0.511
10 | NCI-H596 | 0.758 | 0.798 | 0.823 | 0.535 | 0.492 | 0.953 | 0.986 | 0.848 | 0.79 | 0.737 | 0.474 | 0.828 | 0.267 | 0.211 | 0.638 | 0.522 | 0.536 | 0.357 | 0.216 | 1.04
